# Values joined by “and” are separate entries in the source; they are usually repeats but may differ in a detail not shown here. Equal values may be shown once.
# How the values were obtained:
# Test in all cases: KINATIV assay
# Assay type in all cases: cell-based
# [1] = test system: AurA, AurB, AurC; settings: 1 μM, 90 minutes, BCWM.1 cells
# Description: (§1) The cells were harvested and lysed. The lysates were directly labeled with an ATP-biotin probe. Bound kinases were identified and quantitated by ACTIVX as described in Patricelli et al., Biochemistry, 2007, 46(2): 350-358. The compounds were tested in duplicates against duplicate or quadruplicate control samples.
# [2] = target: AurB (Homo sapiens (Human), UniProt Q96GD4); settings: 1 μM, 90 minutes, BCWM.1 cells
# Description: as §1
# [3] = target: BLK (Homo sapiens (Human), UniProt P51451); settings: 1 μM, 90 minutes, BCWM.1 cells
# Description: as §1
# [4] = target: CDK4 (Homo sapiens (Human), UniProt P11802); settings: 1 μM, 90 minutes, BCWM.1 cells
# Description: as §1
# [5] = target: CDK6 (Homo sapiens (Human), UniProt Q00534); settings: 1 μM, 90 minutes, BCWM.1 cells
# Description: as §1
# [6] = target: CDK9 (Homo sapiens (Human), UniProt P50750); settings: 1 μM, 90 minutes, BCWM.1 cells
# Description: as §1
# [7] = target: CLK3 (Homo sapiens (Human), UniProt P49761); settings: 1 μM, 90 minutes, BCWM.1 cells
# CLK3, sequence (P49761 whole entry): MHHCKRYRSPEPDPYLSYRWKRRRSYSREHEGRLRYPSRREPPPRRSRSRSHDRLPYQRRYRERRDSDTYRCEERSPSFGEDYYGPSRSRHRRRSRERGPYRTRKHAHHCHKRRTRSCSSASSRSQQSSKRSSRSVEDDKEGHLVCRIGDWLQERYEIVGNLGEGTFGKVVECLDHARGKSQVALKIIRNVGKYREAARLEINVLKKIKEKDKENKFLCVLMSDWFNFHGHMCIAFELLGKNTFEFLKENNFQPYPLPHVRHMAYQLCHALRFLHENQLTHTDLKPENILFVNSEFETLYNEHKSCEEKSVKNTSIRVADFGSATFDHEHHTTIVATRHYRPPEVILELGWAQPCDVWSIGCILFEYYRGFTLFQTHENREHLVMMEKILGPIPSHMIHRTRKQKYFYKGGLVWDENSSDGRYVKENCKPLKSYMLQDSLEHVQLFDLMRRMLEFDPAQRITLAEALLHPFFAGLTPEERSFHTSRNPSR
# Description: as §1
# [8] = target: CSK (Homo sapiens (Human), UniProt P41240); settings: 1 μM, 90 minutes, BCWM.1 cells
# CSK, sequence (P41240 whole entry): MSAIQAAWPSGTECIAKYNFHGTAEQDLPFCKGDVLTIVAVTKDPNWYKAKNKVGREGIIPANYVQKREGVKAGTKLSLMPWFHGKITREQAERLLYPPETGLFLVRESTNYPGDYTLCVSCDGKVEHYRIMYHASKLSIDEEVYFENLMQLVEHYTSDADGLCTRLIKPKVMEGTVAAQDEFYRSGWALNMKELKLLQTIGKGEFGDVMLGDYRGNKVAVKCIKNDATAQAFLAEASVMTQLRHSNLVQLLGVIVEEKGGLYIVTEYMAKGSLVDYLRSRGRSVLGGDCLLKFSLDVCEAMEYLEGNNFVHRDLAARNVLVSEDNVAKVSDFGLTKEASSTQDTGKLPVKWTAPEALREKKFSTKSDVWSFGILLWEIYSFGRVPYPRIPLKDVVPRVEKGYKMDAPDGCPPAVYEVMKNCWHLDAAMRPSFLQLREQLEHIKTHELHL
# Description: as §1
# [9] = test system: CaMK2a, CaMK2b, CaMK2d, CaMK2g; settings: 1 μM, 90 minutes, BCWM.1 cells
# Description: as §1
# [10] = target: Erk2 (Homo sapiens (Human), UniProt P28482); settings: 1 μM, 90 minutes, BCWM.1 cells
# Description: as §1
# [11] = target: GSK3B (Homo sapiens (Human), UniProt P49841); settings: GSK3B; 1 μM, 90 minutes, BCWM.1 cells
# GSK3B, sequence (P49841 whole entry): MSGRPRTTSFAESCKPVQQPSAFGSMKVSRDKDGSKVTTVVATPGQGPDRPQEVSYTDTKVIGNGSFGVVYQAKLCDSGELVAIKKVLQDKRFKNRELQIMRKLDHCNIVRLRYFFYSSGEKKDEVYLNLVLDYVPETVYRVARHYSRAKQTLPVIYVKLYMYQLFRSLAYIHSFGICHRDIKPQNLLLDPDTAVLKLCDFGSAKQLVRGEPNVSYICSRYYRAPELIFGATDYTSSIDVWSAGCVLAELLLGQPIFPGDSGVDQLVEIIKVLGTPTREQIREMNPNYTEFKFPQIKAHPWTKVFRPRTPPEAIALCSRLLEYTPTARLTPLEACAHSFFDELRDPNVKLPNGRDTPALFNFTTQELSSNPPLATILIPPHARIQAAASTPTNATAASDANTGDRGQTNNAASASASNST
# Description: as §1
# [12] = target: IKKe (Homo sapiens (Human), UniProt Q14164); settings: 1 μM, 90 minutes, BCWM.1 cells
# Description: as §1
# [13] = target: IRAK1 (Homo sapiens (Human), UniProt P51617); settings: 1 μM, 90 minutes, BCWM.1 cells
# IRAK1, sequence (P51617 whole entry): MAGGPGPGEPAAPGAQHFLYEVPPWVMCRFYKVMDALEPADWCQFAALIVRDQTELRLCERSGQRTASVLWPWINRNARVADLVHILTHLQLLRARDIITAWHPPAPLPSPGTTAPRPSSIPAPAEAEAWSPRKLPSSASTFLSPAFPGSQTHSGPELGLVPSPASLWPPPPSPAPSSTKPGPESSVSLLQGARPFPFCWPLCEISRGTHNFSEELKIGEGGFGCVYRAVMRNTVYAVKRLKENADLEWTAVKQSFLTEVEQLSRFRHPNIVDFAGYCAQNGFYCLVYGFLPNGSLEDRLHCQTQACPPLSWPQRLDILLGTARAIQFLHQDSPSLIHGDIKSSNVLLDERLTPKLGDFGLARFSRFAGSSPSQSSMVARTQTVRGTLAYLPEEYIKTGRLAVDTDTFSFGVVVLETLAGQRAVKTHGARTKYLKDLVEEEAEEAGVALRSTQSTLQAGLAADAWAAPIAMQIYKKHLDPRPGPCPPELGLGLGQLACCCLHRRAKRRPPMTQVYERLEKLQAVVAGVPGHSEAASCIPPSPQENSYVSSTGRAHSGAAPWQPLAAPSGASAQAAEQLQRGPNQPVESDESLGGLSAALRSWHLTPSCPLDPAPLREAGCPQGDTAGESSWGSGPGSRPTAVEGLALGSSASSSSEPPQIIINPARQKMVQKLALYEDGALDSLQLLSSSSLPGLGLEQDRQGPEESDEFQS
# Description: as §1
# [14] = target: IRE1 (Homo sapiens (Human), UniProt O75460); settings: 1 μM, 90 minutes, BCWM.1 cells
# Description: as §1
# [15] = test system: JNK1, JNK2, JNK3; settings: 1 μM, 90 minutes, BCWM.1 cells
# Description: as §1
# [16] = target: KHS1 (Homo sapiens (Human), UniProt Q9Y4K4); settings: 1 μM, 90 minutes, BCWM.1 cells
# Description: as §1
# [17] = target: LRRK2 (Homo sapiens (Human), UniProt Q5S007); settings: 1 μM, 90 minutes, BCWM.1 cells
# Description: as §1
# [18] = target: MAP2K1 (Homo sapiens (Human), UniProt Q02750); settings: 1 μM, 90 minutes, BCWM.1 cells
# Description: as §1
# [19] = target: MAP2K6 (Homo sapiens (Human), UniProt P52564); settings: 1 μM, 90 minutes, BCWM.1 cells
# MAP2K6, sequence (P52564 whole entry): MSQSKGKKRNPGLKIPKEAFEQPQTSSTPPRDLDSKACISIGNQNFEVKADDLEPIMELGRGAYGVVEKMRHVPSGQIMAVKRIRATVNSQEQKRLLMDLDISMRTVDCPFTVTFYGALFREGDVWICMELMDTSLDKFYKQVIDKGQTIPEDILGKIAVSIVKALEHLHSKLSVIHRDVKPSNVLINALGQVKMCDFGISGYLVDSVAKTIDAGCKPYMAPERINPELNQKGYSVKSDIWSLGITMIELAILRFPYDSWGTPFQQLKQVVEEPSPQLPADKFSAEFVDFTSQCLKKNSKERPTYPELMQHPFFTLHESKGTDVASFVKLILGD
# Description: as §1
# [20] = test system: MARK3, MARK4; settings: 1 μM, 90 minutes, BCWM.1 cells
# Description: as §1
# [21] = target: MARK4 (Homo sapiens (Human), UniProt Q96L34); settings: 1 μM, 90 minutes, BCWM.1 cells
# MARK4, sequence (Q96L34 whole entry): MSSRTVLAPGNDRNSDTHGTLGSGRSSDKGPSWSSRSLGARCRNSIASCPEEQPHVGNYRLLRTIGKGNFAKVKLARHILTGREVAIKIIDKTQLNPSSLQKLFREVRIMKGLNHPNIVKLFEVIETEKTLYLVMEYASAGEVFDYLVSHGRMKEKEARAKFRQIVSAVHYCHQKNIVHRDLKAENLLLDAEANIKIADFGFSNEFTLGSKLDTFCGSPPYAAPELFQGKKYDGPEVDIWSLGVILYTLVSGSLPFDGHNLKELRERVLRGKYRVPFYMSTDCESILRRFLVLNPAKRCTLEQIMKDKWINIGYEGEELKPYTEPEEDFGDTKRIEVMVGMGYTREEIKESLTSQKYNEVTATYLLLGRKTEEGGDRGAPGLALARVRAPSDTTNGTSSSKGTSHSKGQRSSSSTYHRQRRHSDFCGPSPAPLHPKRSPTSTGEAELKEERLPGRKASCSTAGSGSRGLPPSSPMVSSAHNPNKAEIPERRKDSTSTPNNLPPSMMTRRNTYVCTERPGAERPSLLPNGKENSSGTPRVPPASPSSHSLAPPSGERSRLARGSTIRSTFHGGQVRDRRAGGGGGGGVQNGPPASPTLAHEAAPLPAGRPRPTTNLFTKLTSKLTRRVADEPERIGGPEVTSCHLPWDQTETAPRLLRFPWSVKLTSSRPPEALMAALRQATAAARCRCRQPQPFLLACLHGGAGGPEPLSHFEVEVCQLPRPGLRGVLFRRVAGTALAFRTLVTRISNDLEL
# Description: as §1
# [22] = test system: MYO3A, MYO3B; settings: 1 μM, 90 minutes, BCWM.1 cells
# Description: as §1
# [23] = target: NEK1 (Homo sapiens (Human), UniProt Q96PY6); settings: 1 μM, 90 minutes, BCWM.1 cells
# Description: as §1
# [24] = target: NEK3 (Homo sapiens (Human), UniProt P51956); settings: 1 μM, 90 minutes, BCWM.1 cells
# Description: as §1
# [25] = test system: NEK6, NEK7; settings: 1 μM, 90 minutes, BCWM.1 cells
# Description: as §1
# [26] = target: NLK (Homo sapiens (Human), UniProt Q9UBE8); settings: 1 μM, 90 minutes, BCWM.1 cells
# Description: as §1
# [27] = target: PIK3CB (Homo sapiens (Human), UniProt P42338); settings: 1 μM, 90 minutes, BCWM.1 cells
# Description: as §1
# [28] = target: PIK3CG (Homo sapiens (Human), UniProt P48736); settings: 1 μM, 90 minutes, BCWM.1 cells
# Description: as §1
# [29] = target: PIP5K3 (Homo sapiens (Human), UniProt Q9Y2I7); settings: 1 μM, 90 minutes, BCWM.1 cells
# Description: as §1
# [30] = target: RSK1 domain2 (Homo sapiens (Human), UniProt Q15418); settings: 1 μM, 90 minutes, BCWM.1 cells
# Description: as §1
# [31] = target: RSK2 domain2 (Homo sapiens (Human), UniProt P51812); settings: 1 μM, 90 minutes, BCWM.1 cells
# Description: as §1
# [32] = target: RSKL1 (Homo sapiens (Human), UniProt Q96S38); settings: 1 μM, 90 minutes, BCWM.1 cells
# Description: as §1
# [33] = target: STLK6 (Homo sapiens (Human), UniProt Q9C0K7); settings: 1 μM, 90 minutes, BCWM.1 cells
# Description: as §1
# [34] = target: TAK1 (Homo sapiens (Human), UniProt O43318); settings: 1 μM, 90 minutes, BCWM.1 cells
# Description: as §1
# [35] = target: ULK3 (Homo sapiens (Human), UniProt Q6PHR2); settings: 1 μM, 90 minutes, BCWM.1 cells
# ULK3, sequence (Q6PHR2 whole entry): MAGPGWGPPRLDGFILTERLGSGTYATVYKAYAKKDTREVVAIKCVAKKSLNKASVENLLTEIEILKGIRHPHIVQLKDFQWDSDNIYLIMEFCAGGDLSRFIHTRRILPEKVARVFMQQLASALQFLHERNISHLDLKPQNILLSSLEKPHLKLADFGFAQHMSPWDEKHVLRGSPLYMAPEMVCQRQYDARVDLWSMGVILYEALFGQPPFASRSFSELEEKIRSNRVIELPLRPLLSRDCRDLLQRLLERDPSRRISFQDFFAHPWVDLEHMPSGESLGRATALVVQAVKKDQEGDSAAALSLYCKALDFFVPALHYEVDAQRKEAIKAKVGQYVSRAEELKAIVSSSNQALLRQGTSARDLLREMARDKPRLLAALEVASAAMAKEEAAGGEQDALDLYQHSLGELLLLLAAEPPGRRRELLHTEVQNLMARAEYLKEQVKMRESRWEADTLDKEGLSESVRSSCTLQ
# Description: as §1
# [36] = test system: Wnk1, Wnk2, Wnk3; settings: 1 μM, 90 minutes, BCWM.1 cells
# Description: as §1
# [37] = target: ZC2/TNIK (Homo sapiens (Human), UniProt Q9UKE5); settings: 1 μM, 90 minutes, BCWM.1 cells
# ZC2/TNIK, sequence (Q9UKE5 whole entry): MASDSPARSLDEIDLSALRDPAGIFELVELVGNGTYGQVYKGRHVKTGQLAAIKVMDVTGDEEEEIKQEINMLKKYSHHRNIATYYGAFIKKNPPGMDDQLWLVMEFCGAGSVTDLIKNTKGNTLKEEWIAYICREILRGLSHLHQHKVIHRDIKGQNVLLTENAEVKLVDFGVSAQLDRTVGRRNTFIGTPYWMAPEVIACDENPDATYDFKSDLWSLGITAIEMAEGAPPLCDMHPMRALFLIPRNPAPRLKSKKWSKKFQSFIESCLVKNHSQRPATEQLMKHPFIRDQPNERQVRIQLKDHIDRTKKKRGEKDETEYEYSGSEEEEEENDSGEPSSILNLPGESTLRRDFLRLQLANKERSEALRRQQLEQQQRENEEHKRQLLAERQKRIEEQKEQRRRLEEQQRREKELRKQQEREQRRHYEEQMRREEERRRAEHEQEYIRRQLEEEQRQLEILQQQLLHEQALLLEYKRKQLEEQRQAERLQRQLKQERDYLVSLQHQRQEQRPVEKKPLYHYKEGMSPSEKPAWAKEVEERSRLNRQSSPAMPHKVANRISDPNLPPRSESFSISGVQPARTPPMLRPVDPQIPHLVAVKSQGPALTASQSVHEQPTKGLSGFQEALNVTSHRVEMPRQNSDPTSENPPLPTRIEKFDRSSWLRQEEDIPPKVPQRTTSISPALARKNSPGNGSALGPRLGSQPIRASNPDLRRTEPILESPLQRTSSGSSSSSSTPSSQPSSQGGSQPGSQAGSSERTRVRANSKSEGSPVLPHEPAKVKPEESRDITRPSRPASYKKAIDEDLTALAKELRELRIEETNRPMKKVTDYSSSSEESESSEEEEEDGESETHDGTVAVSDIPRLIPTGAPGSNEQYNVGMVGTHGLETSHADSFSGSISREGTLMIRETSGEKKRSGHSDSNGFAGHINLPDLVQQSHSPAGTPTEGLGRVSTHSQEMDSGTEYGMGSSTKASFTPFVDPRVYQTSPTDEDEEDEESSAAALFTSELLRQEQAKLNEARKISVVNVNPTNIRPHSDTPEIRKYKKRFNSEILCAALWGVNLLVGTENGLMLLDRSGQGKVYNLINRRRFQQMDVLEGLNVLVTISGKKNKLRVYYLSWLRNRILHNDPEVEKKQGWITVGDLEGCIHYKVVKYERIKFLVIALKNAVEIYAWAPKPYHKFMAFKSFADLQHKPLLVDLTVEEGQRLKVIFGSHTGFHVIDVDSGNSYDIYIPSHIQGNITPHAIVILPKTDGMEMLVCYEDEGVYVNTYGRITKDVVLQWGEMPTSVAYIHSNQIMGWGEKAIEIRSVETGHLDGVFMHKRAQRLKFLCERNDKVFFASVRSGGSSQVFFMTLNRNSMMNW
# Description: as §1
# [38] = target: p38b (Homo sapiens (Human), UniProt Q15759); settings: 1 μM, 90 minutes, BCWM.1 cells
# Description: as §1
# [39] = target: p70S6K (Homo sapiens (Human), UniProt P23443); settings: 1 μM, 90 minutes, BCWM.1 cells
# Description: as §1
# [40] = test system: PCTAIRE1, PCTAIRE3; settings: 1 μM, 90 minutes, BCWM.1 cells
# Source text: (§2) The cells were harvested and lysed.
# [41] = test system: PCTAIRE2, PCTAIRE3; settings: 1 μM, 90 minutes, BCWM.1 cells
# Source text: as §2
compound,measurement,setting,value
C=CC(=O)N1CCC(Cn2ccc(Nc3ncc(C(=O)Nc4c(C)cccc4Cl)s3)n2)C1 (stereo not shown) [II-1],% change of MS signal compared to control sample,[1],−3.6%
same,% change of MS signal compared to control sample,[2],−7.2%
same,% change of MS signal compared to control sample,[3],>95%
same,% change of MS signal compared to control sample,[4],2.2%
same,% change of MS signal compared to control sample,[5],6.0%
same,% change of MS signal compared to control sample,[6],−57.0%
same,% change of MS signal compared to control sample,[7],−22.6%
same,% change of MS signal compared to control sample,[8],26.2% and 32.5%
same,% change of MS signal compared to control sample,[9],2.5%
same,% change of MS signal compared to control sample,[10],−5.8%
same,% change of MS signal compared to control sample,[11],−5.1%
same,% change of MS signal compared to control sample,[12],−1.0%
same,% change of MS signal compared to control sample,[13],26.3%
same,% change of MS signal compared to control sample,[14],−29.5%
same,% change of MS signal compared to control sample,[15],−23.5%
same,% change of MS signal compared to control sample,[16],−0.6%
same,% change of MS signal compared to control sample,[17],−20.9%
same,% change of MS signal compared to control sample,[18],−23.4%
same,% change of MS signal compared to control sample,[19],−8.3% and −12.6%
same,% change of MS signal compared to control sample,[20],17.4%
same,% change of MS signal compared to control sample,[21],12.8% and 9.7%
same,% change of MS signal compared to control sample,[22],12.9%
same,% change of MS signal compared to control sample,[23],14.9%
same,% change of MS signal compared to control sample,[24],8.1%
same,% change of MS signal compared to control sample,[25],−0.2%
same,% change of MS signal compared to control sample,[26],3.7%
same,% change of MS signal compared to control sample,[27],−64.9%
same,% change of MS signal compared to control sample,[28],−45.9%
same,% change of MS signal compared to control sample,[29],16.3%
same,% change of MS signal compared to control sample,[30],14.0%
same,% change of MS signal compared to control sample,[31],9.7%
same,% change of MS signal compared to control sample,[32],13.7%
same,% change of MS signal compared to control sample,[33],−0.8%
same,% change of MS signal compared to control sample,[34],25.6%
same,% change of MS signal compared to control sample,[35],22.4% and 22.8%
same,% change of MS signal compared to control sample,[36],2.4%
same,% change of MS signal compared to control sample,[37],−10.0%
same,% change of MS signal compared to control sample,[38],−19.0%
same,% change of MS signal compared to control sample,[39],−65.4%
same,% change of MS signal compared to control sample,[40],11.4%
same,% change of MS signal compared to control sample,[41],31.8%
C=CC(=O)N1CCCCC(Nc2nccc(Nc3ncc(C(=O)Nc4c(C)cccc4C)s3)n2)C1 (stereo not shown) [Example I-7],% change of MS signal compared to control sample,[1],0.4%
same,% change of MS signal compared to control sample,[2],−6.1%
same,% change of MS signal compared to control sample,[3],>95%
same,% change of MS signal compared to control sample,[4],16.7%
same,% change of MS signal compared to control sample,[5],4.1%
same,% change of MS signal compared to control sample,[6],−37.0%
same,% change of MS signal compared to control sample,[7],−15.7%
same,% change of MS signal compared to control sample,[8],76.5% and 75.7%
same,% change of MS signal compared to control sample,[9],7.4%
same,% change of MS signal compared to control sample,[10],−4.7%
same,% change of MS signal compared to control sample,[11],−1.9%
same,% change of MS signal compared to control sample,[12],0.4%
same,% change of MS signal compared to control sample,[13],19.0%
same,% change of MS signal compared to control sample,[14],−15.7%
same,% change of MS signal compared to control sample,[15],−4.8%
same,% change of MS signal compared to control sample,[16],−5.9%
same,% change of MS signal compared to control sample,[17],−9.6%
same,% change of MS signal compared to control sample,[18],−3.7%
same,% change of MS signal compared to control sample,[19],5.9% and 2.5%
same,% change of MS signal compared to control sample,[20],20.7%
same,% change of MS signal compared to control sample,[21],4.9% and 14.1%
same,% change of MS signal compared to control sample,[22],17.2%
same,% change of MS signal compared to control sample,[23],11.4%
same,% change of MS signal compared to control sample,[24],15.6%
same,% change of MS signal compared to control sample,[25],−8.4%
same,% change of MS signal compared to control sample,[26],4.2%
same,% change of MS signal compared to control sample,[27],−42.6%
same,% change of MS signal compared to control sample,[28],−51.9%
same,% change of MS signal compared to control sample,[29],4.3%
same,% change of MS signal compared to control sample,[30],4.9%
same,% change of MS signal compared to control sample,[31],−0.3%
same,% change of MS signal compared to control sample,[32],29.7%
same,% change of MS signal compared to control sample,[33],−16.3%
same,% change of MS signal compared to control sample,[34],14.5%
same,% change of MS signal compared to control sample,[35],15.5% and 18.4%
same,% change of MS signal compared to control sample,[36],10.4%
same,% change of MS signal compared to control sample,[37],−1.5%
same,% change of MS signal compared to control sample,[38],−1.5%
same,% change of MS signal compared to control sample,[39],−70.1%
same,% change of MS signal compared to control sample,[40],14.9%
same,% change of MS signal compared to control sample,[41],27.0%

# Source: patent publication US10844077B2, “Thiazolyl-containing compounds for treating proliferative diseases” (Dana-Farber Cancer Institute, Inc., priority 2014, dated 2020)
